This note sets out measurements from patent publication US8946282B2, “Indolin-2-one derivatives as protein kinase inhibitors” (Annji Pharmaceutical Co., Ltd., priority 2012, dated 2015).

Data set [1] relates to HepG2 human hepatocellular carcinoma cells. Kind of data set: anti-proliferation, SRB colorimetric assay, HepG2. In kind it is cell-based. The settings on record: concentration required for 50% growth inhibition, read-out: IC50 (μM, mean ± S.D.). The text has this: HCT116 human colorectal carcinoma cells (Table 3), HepG2 human hepatocellular carcinoma cells (Table 4), and MV4-11 human acute myelomonocytic leukemia cells (Table 5).

Data set [2] concerns A549 human lung carcinoma cells. Kind of data set: anti-proliferation, SRB colorimetric assay, A549. As to conditions: concentration required for 50% growth inhibition, read-out: IC50 (μM, mean ± S.D.). Type of data set: cell-based.
Another data set addresses aurora B (Homo sapiens, UniProt Q96GD4). Kind of data set: radioisotope-based P81 filter-binding assay, aurora B kinase. The settings on record: averaged from two independent dose-response curves; read-out: Enzyme assay IC50 Aur B. In kind it is biochemical. As for the experimental part: (§1) Compounds of formula (I)-(IV) were evaluated for abilities in inhibiting protein kinases aurora B and FLT-3 activity using radioisotope-based P81 filter-binding assay (Table 1).

Data set [3] relates to HCT116 human colorectal carcinoma cells. Kind of data set: anti-proliferation, SRB colorimetric assay, HCT116. In kind it is cell-based. As to conditions: HCT-116, concentration required for 50% growth inhibition, read-out: IC50 (μM, mean ± S.D.). As for the experimental part:
(§2) HCT116 human colorectal carcinoma cells (Table 3), HepG2 human hepatocellular carcinoma cells (Table 4), and MV4-11 human acute myelomonocytic leukemia cells (Table 5). Cells were treated with the test compound and the concentration required for 50% growth inhibition (IC50) determined by sulfomodamine B (SRB) colorimetric assay.

Another data set addresses T1, FLT-3 (Homo sapiens, UniProt P36888).
T1 sequence (P36888 27-993): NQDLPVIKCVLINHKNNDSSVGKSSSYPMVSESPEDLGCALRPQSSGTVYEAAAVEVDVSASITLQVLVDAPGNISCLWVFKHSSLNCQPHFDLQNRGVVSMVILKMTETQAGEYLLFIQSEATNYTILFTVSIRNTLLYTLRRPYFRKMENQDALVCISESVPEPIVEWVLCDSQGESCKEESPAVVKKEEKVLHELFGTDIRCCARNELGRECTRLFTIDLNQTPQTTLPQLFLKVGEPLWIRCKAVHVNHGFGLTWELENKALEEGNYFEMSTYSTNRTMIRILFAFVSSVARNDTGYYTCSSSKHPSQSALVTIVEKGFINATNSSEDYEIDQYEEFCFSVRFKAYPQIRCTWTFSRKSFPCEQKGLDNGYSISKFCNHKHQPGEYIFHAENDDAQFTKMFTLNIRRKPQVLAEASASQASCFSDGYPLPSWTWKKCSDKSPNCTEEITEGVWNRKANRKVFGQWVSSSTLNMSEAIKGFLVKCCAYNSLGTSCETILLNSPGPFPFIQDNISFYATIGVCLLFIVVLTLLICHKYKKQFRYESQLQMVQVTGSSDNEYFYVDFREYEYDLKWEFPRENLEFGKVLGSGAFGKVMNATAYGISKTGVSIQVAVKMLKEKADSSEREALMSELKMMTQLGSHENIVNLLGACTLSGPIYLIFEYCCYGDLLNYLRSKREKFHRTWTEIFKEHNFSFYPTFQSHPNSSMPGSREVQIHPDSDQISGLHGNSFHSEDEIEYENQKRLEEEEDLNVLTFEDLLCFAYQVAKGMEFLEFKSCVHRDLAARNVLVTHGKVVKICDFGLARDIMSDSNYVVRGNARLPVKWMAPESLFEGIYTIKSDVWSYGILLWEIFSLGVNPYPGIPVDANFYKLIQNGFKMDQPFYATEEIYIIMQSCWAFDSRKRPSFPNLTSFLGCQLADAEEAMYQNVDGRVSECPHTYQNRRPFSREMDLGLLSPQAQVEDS
Kind of data set: radioisotope-based P81 filter-binding assay, FLT-3 kinase. Type of data set: biochemical. As to conditions: averaged from two independent dose-response curves; read-out: Enzyme assay IC50 FLT-3. Here is the method:
as §1

Data set [4] relates to MV4-11 human acute myelomonocytic leukemia cells. Kind of data set: anti-proliferation, SRB colorimetric assay, MV4-11. In kind it is cell-based. The settings on record: concentration required for 50% growth inhibition. As for the experimental part: as §2
The next data set relates to Huh7 cancer cell line. Kind of data set: in vivo efficacy, Huh7 xenografts in SCID mice. As to conditions: established xenografts of Huh7 cancer cell line in female SCID mice.

aurora B, sequence (Q96GD4 whole entry): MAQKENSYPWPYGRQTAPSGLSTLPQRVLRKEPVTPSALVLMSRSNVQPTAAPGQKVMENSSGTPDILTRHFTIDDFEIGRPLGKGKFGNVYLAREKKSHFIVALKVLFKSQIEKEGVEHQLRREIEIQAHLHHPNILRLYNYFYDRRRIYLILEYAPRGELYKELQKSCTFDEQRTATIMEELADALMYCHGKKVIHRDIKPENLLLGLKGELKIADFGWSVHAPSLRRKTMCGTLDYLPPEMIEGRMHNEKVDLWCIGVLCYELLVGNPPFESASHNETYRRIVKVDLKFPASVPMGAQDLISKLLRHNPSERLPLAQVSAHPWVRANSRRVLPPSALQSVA

On to `Cc1ccc(-c2c[nH]cc(C(=O)Nc3ccc4c(c3)NC(=O)/C4=C\c3ccc[nH]3)c2=O)cc1` [D131, (Z)—N-(3-((1H-pyrrol-2-yl)methylene)-2-oxoindolin-6-yl)-5-p-tolyl-4-oxo-1,4-dihydropyridine-3-carboxamide], for which the melting point is more than 300 °C. Further, the IC50 in data set [1] turned out to be 0.71 ± 0.07 µM. The IC50 in data set [2] amounted to 0.52 ± 0.03 µM. Also, the IC50 on aurora B is 63.2 nM. The IC50 in data set [3] was found to be 0.56 ± 0.03 µM. The IC50 at FLT-3 was 74.7 nM. Further, it took 18.4 nM to reach half-maximal inhibition in data set [4] (IC50).
In the case of `O=C1Nc2cc(NC(=O)c3c[nH]cc(-c4cccc(Cl)c4)c3=O)ccc2/C1=C/c1ccc[nH]1` [D132, (Z)—N-(3-((1H-pyrrol-2-yl)methylene)-2-oxoindolin-6-yl)-5-(3-chlorophenyl)-4-oxo-1,4-dihydropyridine-3-carboxamide], the melting point was more than 300 °C. Also, the IC50 in data set [1] was 0.55 ± 0.03 µM. Also, the IC50 in data set [2] is 0.5 ± 0.01 µM. At aurora B, the IC50 turned out to be 161 nM. Moreover, the IC50 in data set [3] is 0.63 ± 0.03 µM. Further, the IC50 on FLT-3 came out at 148 nM. In data set [4], this compound returned an IC50 of 9.1 nM.
Take `O=C1Nc2cc(NC(=O)c3c[nH]cc(-c4ccc(C(F)(F)F)cc4)c3=O)ccc2/C1=C/c1ccc[nH]1` [D133]: the melting point is more than 300 °C. For the same compound, the IC50 in data set [1] amounted to 0.73 ± 0.03 µM. Besides, the IC50 in data set [2] is 0.45 ± 0.08 µM. Also, on aurora B, the IC50 stood at 348 nM. The concentration for half-maximal inhibition (IC50) in data set [3] is 0.65 ± 0.04 µM. Moreover, at FLT-3, the IC50 was determined as 100 nM. The compound further showed an IC50 in data set [4] of 5.9 nM.
Turning to `O=C1Nc2cc(NC(=O)c3c[nH]cc(-c4ccccc4F)c3=O)ccc2/C1=C/c1ccc[nH]1` [D134, (Z)—N-(3-((1H-pyrrol-2-yl)methylene)-2-oxoindolin-6-yl)-4-oxo-5-(2-fluorophenyl)-1,4-dihydropyridine-3-carboxamide], the melting point was more than 300 °C. Besides, the IC50 in data set [1] turned out to be 0.6 ± 0.07 µM. Moreover, the IC50 in data set [2] came out at 0.46 ± 0.06 µM. For the same compound, the IC50 at aurora B turned out to be 25.5 nM. In data set [3], the IC50 stood at 0.73 ± 0.09 µM. In addition, in the data set on Huh7 cancer cell line, the tumor size entry was “suppressed the tumor size”. Also, the IC50 on FLT-3 came to 100 nM. The compound further registered an IC50 in data set [4] of 13.2 nM.
In turn, `O=C1Nc2cc(NC(=O)c3c[nH]cc(-c4ccc(F)cc4F)c3=O)ccc2/C1=C/c1ccc[nH]1` [D135, (Z)—N-(3-((1H-pyrrol-2-yl)methylene)-2-oxoindolin-6-yl)-4-oxo-5-(2,4-difluorophenyl)-1,4-dihydropyridine-3-carboxamide] yielded a melting point of more than 300 °C. In addition, in data set [1], the IC50 stood at 0.56 ± 0.16 µM. For the same compound, in data set [2], the IC50 is 0.59 ± 0.09 µM. Further, the IC50 at aurora B stood at 64.5 nM. The IC50 in data set [3] worked out at 0.78 ± 0.1 µM. The IC50 at FLT-3 came out at 50.1 nM. The compound further came in with an IC50 in data set [4] of 4.25 nM.
